Experimental data published in ChEMBL document CHEMBL3046057, “Synthesis and leishmanicidal activity of quinolinetriclosan and quinolineeugenol hybrids” (Med Chem Res, 2012).
Converted amounts (≈) assume the structure as drawn.

Tests used:
[1] = Selectivity index, ratio of LC50 for human U937 cells to EC50 for intracellular amastigote stage of Leishmania panamensis MHOM/CO/87/UA140epir GFP infected in human U937 cells; type: toxicity, cell-based, U-937; conditions: for selectivity ratio: read-out: Selectivity Index
Leishmania panamensis [2] = assay: Leishmanicidal activity against intracellular amastigote stage of Leishmania panamensis MHOM/CO/87/UA140epir GFP infected in human U937 cells assessed as parasite viability after 72 hr by flow cytometric analysis; type: functional, organism-based, U-937
Leishmania panamensis [3] = assay: Leishmanicidal activity against axenic amastigote stage of Leishmania panamensis MHOM/CO/87/UA140epir GFP assessed as parasite viability after 72 hr by MTT assay; type: functional, organism-based
[4] = (§1) Cytotoxicity against Homo sapiens (human) U937 cells assessed as cell viability after 72 hr by MTT assay; type: cell-based, U-937; conditions: U937 cells, read-out: LC50
[5] = Selectivity index, ratio of LC50 for human U937 cells to EC50 for axenic amastigote stage of Leishmania panamensis MHOM/CO/87/UA140epir GFP; type: toxicity, cell-based, U-937; conditions: for selectivity ratio: U937 cells, axenic amastigotes of Leishmania panamensis, read-out: Selectivity Index
U-937 = assay: as §1; type: cell-based; conditions: u-937, 72 h
[6] = Leishmania panamensis, MHOM/CO/87/UA140epir GFP, U-937, 72 h, read-out: EC50
[7] = Leishmania panamensis, MHOM/CO/87/UA140epir GFP, 72 h, read-out: EC50

Molecule | selectivity ratio [1] | EC50 (Leishmania panamensis [2]; [6]) | EC50 (Leishmania panamensis [3]; [7]) | CC50 at 72 h [4] | selectivity ratio [5] | Selectivity Index ([1]; u-937) | EC50 (Leishmania panamensis [2]; u-937) | Selectivity Index ([5]; u-937) | EC50 (Leishmania panamensis [3]) | LC50 (U-937)
C=CCc1ccc(OCCCCCCCCCCCCOc2cccc3ccc(C)nc23)c(OC)c1 | 4.7 | 17.4 µg/mL (≈ 35.5 µM) | > 100 µg/mL | 82.9 µg/mL (≈ 169 µM) |  |  |  |  |  | 
Cc1ccc2cccc(OCCCOc3cc(Cl)ccc3Oc3ccc(Cl)cc3Cl)c2n1 | > 31.2 | 6.4 µg/mL (≈ 13.1 µM) | 23.6 µg/mL (≈ 48.3 µM) | > 200 µg/mL | > 8.5 |  |  |  |  | 
Cc1ccc2cccc(OCCCCOc3cc(Cl)ccc3Oc3ccc(Cl)cc3Cl)c2n1 | > 2 | > 100 µg/mL | 9.7 µg/mL (≈ 19.3 µM) | > 200 µg/mL | > 20.6 |  |  |  |  | 
Cc1ccc2cccc(OCCCCCOc3cc(Cl)ccc3Oc3ccc(Cl)cc3Cl)c2n1 | 24.6 | 2.4 µg/mL (≈ 4.64 µM) | 4.1 µg/mL (≈ 7.93 µM) | 59.2 µg/mL (≈ 115 µM) | 14.4 |  |  |  |  | 
Cc1ccc2cccc(OCCCCCCCCOc3cc(Cl)ccc3Oc3ccc(Cl)cc3Cl)c2n1 |  |  | > 100 µg/mL | > 200 µg/mL | > 2 |  |  |  |  | 
Cc1ccc2cccc(OCCCCCCCCCOc3cc(Cl)ccc3Oc3ccc(Cl)cc3Cl)c2n1 |  |  | > 100 µg/mL | > 200 µg/mL | > 2 |  |  |  |  | 
Cc1ccc2cccc(OCCCCCCCCCCCCOc3cc(Cl)ccc3Oc3ccc(Cl)cc3Cl)c2n1 |  |  | > 100 µg/mL | > 200 µg/mL | > 2 |  |  |  |  | 
C=CCc1ccc(OCCCOc2cccc3ccc(C)nc23)c(OC)c1 |  |  | 6.9 µg/mL (≈ 19 µM) | 6.8 µg/mL (≈ 18.7 µM) | 1 |  |  |  |  | 
C=CCc1ccc(OCCCCOc2cccc3ccc(C)nc23)c(OC)c1 | < 1 | > 31.3 µg/mL | 38.9 µg/mL (≈ 103 µM) | 31.3 µg/mL (≈ 82.9 µM) | 0.5 |  |  |  |  | 
C=CCc1ccc(OCCCCCOc2cccc3ccc(C)nc23)c(OC)c1 |  |  | 9.5 µg/mL (≈ 24.3 µM) | 10.5 µg/mL (≈ 26.8 µM) | 1 |  |  |  |  | 
C=CCc1ccc(OCCCCCCCCOc2cccc3ccc(C)nc23)c(OC)c1 | 3.8 | 3.9 µg/mL (≈ 8.99 µM) | 29.6 µg/mL (≈ 68.3 µM) | 14.7 µg/mL (≈ 33.9 µM) | 0.5 |  |  |  |  | 
C=CCc1ccc(OCCCCCCCCCOc2cccc3ccc(C)nc23)c(OC)c1 |  |  | 21.1 µg/mL (≈ 47.1 µM) | 14.1 µg/mL (≈ 31.5 µM) | 0.7 |  |  |  |  | 
Cc1ccc2cccc(O)c2n1 [8-HYDROXY QUINALDINE] |  |  | 2.6 µg/mL (≈ 16.3 µM) | 7.6 µg/mL (≈ 47.7 µM) | 2.9 |  |  |  |  | 
C[C@@H]1[C@H](O)[C@@H](C)/C=C/C=C/C=C/C=C/C=C/C=C/C=C/[C@H](O[C@@H]2O[C@H](C)[C@@H](O)[C@H](N)[C@@H]2O)C[C@@H]2O[C@](O)(C[C@@H](O)C[C@@H](O)[C@H](O)CC[C@@H](O)C[C@@H](O)CC(=O)O[C@H]1C)C[C@H](O)[C@H]2C(=O)O [AMPHOTERICIN B] | 970 | 0.04 µg/mL (≈ 0.0433 µM) | 0.05 µg/mL (≈ 0.0541 µM) | 38.8 µg/mL (≈ 42 µM) | 776 |  |  |  |  | 
C=CCc1ccc(O)c(OC)c1 [EUGENOL] |  |  | 21.4 µg/mL (≈ 130 µM) | 14.2 µg/mL (≈ 86.5 µM) | 0.7 |  |  |  |  | 
Oc1cc(Cl)ccc1Oc1ccc(Cl)cc1Cl [TRICLOSAN] |  |  | 11.3 µg/mL (≈ 39 µM) | 4.8 µg/mL (≈ 16.6 µM) | 0.4 |  |  |  |  | 
MEGLUMINE ANTIMONATE |  |  |  |  |  | > 147.05 | 6.8 µg/mL | > 1 | > 1000 µg/mL | > 1000 µg/mL
